Source: US11712434B2, “Compound having anti-cancer effect, and preparation method therefor and use thereof” (3D MEDICINES (BEIJING) CO., LTD., priority 2016, dated 2023)
Each block holds one compound with its values, some of them ahead of it.

Legend:
Assay in all cases: Cell proliferation assay (Alamar Blue)
Format in all cases: cell-based
22RV1 = 22RV1 tumor cell line, 6 days culture
Outline: (§1)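 Log-phase cells seeded at line-optimised density, compound added after 4 h at 37 °C, 5% CO2, as 9-point 3.16-fold dilutions from 100 or 30 µM top concentration, duplicate wells. After 6 days, AlamarBlue fluorescence (ex 560/em 590 nm); IC50 from four-parameter nonlinear regression of % inhibition.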

AN3CA = AN3CA tumor cell line, 6 days culture
Outline: as §1

Alexander cells = Alexander cells liver cancer cell line, 6 days culture
Outline: as §1

HLE = HLE liver cancer cell line, 6 days culture
Outline: as §1

HLF = HLF liver cancer cell line, 6 days culture
Outline: as §1

HT1080 = HT1080 tumor cell line, 6 days culture
Outline: as §1

HT55 = HT55 tumor cell line, 6 days culture
Outline: as §1

HUH1 = HUH1 liver cancer cell line, 6 days culture
Outline: as §1

HUH7 = HUH7 liver cancer cell line, 6 days culture
Outline: as §1

Hep3B2.1-7 = Hep3B2.1-7 liver cancer cell line, 6 days culture
Outline: as §1

JHH6 = JHH6 liver cancer cell line, 6 days culture
Outline: as §1

K562 = K562 tumor cell line, 6 days culture
Outline: as §1

LC-2-ad = LC-2-ad tumor cell line, 6 days culture
Outline: as §1

MDA-MB-231 = MDA-MB-231 tumor cell line, 6 days culture
Outline: as §1

MDA-MB-435S = MDA-MB-435S tumor cell line, 6 days culture
Outline: as §1

MG63 = MG63 tumor cell line, 6 days culture
Outline: as §1

NCI-H526 = NCI-H526 tumor cell line, 6 days culture
Outline: as §1

NCI-H716 = NCI-H716 tumor cell line, 6 days culture
Outline: as §1

SK-HEP-1 = SK-HEP-1 liver cancer cell line, 6 days culture
Outline: as §1

SNU354 = SNU354 liver cancer cell line, 6 days culture
Outline: as §1

SNU398 = SNU398 liver cancer cell line, 6 days culture
Outline: as §1

SNU449 = SNU449 liver cancer cell line, 6 days culture
Outline: as §1

SNU739 = SNU739 liver cancer cell line, 6 days culture
Outline: as §1

SNU886 = SNU886 liver cancer cell line, 6 days culture
Outline: as §1

T.T = T.T tumor cell line, 6 days culture
Outline: as §1

TE-15 = TE-15 tumor cell line, 6 days culture
Outline: as §1

TE-6 = TE-6 tumor cell line, 6 days culture
Outline: as §1

IC50 (22RV1; Homo sapiens, 144 h): 6.37 µM
IC50 (HT1080; Homo sapiens, HT-1080, 144 h): 7.83 µM
IC50 (HUH1; Homo sapiens, HuH-1, 144 h): 3.88 µM
IC50 (HUH7; Homo sapiens, Huh-7, 144 h): 2.24 µM
IC50 (Hep3B2.1-7; 144 h): 2.43 µM
IC50 (K562; Homo sapiens, 144 h): 14.6 µM
IC50 (MDA-MB-231; Homo sapiens, 144 h): 4.63 µM
IC50 (MDA-MB-435S; Homo sapiens, 144 h): 9.46 µM
IC50 (NCI-H526; Homo sapiens, 144 h): 6.93 µM
IC50 (NCI-H716; Homo sapiens, 144 h): 5.09 µM
IC50 (SK-HEP-1; Homo sapiens, SK-HEP1, 144 h): 14.9 µM
IC50 (SNU354; Homo sapiens, SNU-354, 144 h): 3.33 µM
IC50 (SNU398; Homo sapiens, SNU-398, 144 h): 1.64 µM
IC50 (SNU449; Homo sapiens, SNU-449, 144 h): 13.9 µM
IC50 (SNU739; SNU-739, 144 h): 5.29 µM
IC50 (SNU886; SNU-886, 144 h): 6.19 µM
Structure (SMILES): Cc1ccc(F)c(NC(=O)Nc2ccc(-c3cccc4[nH]nc(NC(=O)C[C@H](N)C(=O)O)c34)cc2)c1 [Compound 10]
IC50 (AN3CA; Homo sapiens, AN3-CA, 144 h): 0.27 µM
IC50 (Alexander cells; 144 h): 3.79 µM
IC50 (HLE; Homo sapiens, 144 h): 2.16 µM
IC50 (HLF; 144 h): 4.85 µM
IC50 (HT55; Homo sapiens, 144 h): 18.5 µM
IC50 (JHH6; 144 h): 5.38 µM
IC50 (LC-2-ad; Homo sapiens, 144 h): 3.33 µM
IC50 (MG63; Homo sapiens, MG-63, 144 h): 1.95 µM
IC50 (T.T; Homo sapiens, TT, 144 h): 7.38 µM
IC50 (TE-15; Homo sapiens, 144 h): 2.58 µM
IC50 (TE-6; Homo sapiens, 144 h): 6.98 µM

IC50 (22RV1): > 100 µM
IC50 (HT1080): > 100 µM
IC50 (HUH1): > 100 µM
IC50 (HUH7): > 100 µM
IC50 (Hep3B2.1-7): > 100 µM
IC50 (K562): > 100 µM
IC50 (MDA-MB-231): > 100 µM
IC50 (MDA-MB-435S): > 100 µM
IC50 (NCI-H526): > 100 µM
IC50 (NCI-H716): 67.4 µM
IC50 (SK-HEP-1): > 100 µM
IC50 (SNU354): > 100 µM
IC50 (SNU398): > 100 µM
IC50 (SNU449): > 100 µM
IC50 (SNU739): > 100 µM
IC50 (SNU886): > 100 µM
Structure (SMILES): Cc1ccc(F)c(NC(=O)Nc2ccc(-c3cccc4[nH]nc(NC(=O)CCCCCNC(=O)C[C@H](N)C(=O)O)c34)cc2)c1 [Compound 11]
IC50 (AN3CA): 17.4 µM
IC50 (Alexander cells): > 100 µM
IC50 (HLE): > 100 µM
IC50 (HLF): 95.7 µM
IC50 (HT55): > 100 µM
IC50 (JHH6): > 100 µM
IC50 (LC-2-ad): > 100 µM
IC50 (MG63): > 100 µM
IC50 (T.T): > 100 µM
IC50 (TE-15): > 100 µM
IC50 (TE-6): > 100 µM

IC50 (22RV1): 95.6 µM
IC50 (HT1080): > 100 µM
IC50 (HUH1): > 100 µM
IC50 (HUH7): 40.6 µM
IC50 (Hep3B2.1-7): 79.6 µM
IC50 (K562): > 100 µM
IC50 (MDA-MB-231): 79.5 µM
IC50 (MDA-MB-435S): > 100 µM
IC50 (NCI-H526): > 100 µM
IC50 (NCI-H716): 35.5 µM
IC50 (SK-HEP-1): > 100 µM
IC50 (SNU354): 97.3 µM
IC50 (SNU398): > 100 µM
IC50 (SNU449): > 100 µM
IC50 (SNU739): > 100 µM
IC50 (SNU886): 41.9 µM
Structure (SMILES): Cc1ccc(F)c(NC(=O)Nc2ccc(-c3cccc4[nH]nc(NC(=O)CCCCCCCCCCCNC(=O)C[C@H](N)C(=O)O)c34)cc2)c1 [Compound 12]
IC50 (AN3CA): 3.84 µM
IC50 (Alexander cells): 77.1 µM
IC50 (HLE): > 100 µM
IC50 (HLF): > 100 µM
IC50 (HT55): > 100 µM
IC50 (JHH6): 85.8 µM
IC50 (LC-2-ad): 22.9 µM
IC50 (MG63): > 100 µM
IC50 (T.T): > 100 µM
IC50 (TE-15): > 100 µM
IC50 (TE-6): > 100 µM
